The record followed here is ChEMBL document CHEMBL4219187, “A new target for Alzheimer's disease: A small molecule SERCA activator is neuroprotective in vitro and improves memory and cognition in APP/PS1 mice” (Bioorg Med Chem Lett, 2018).

The nature of data set [1]: Half life in human plasma. In kind it is ADME, cell-free.
For data set [2], the system named is Mus musculus. The data set can be described thus: Antialzheimer activity in APPSWE/PSEN1dE9 double-transgenic mouse model of Alzheimer's disease assessed as decrease in impairment of motor coordination at 10 mg/kg, ip administered daily for 5 days per week for 4 weeks by rotarod test. In kind it is functional, organism-based. (The rotarod test checks motor coordination on a turning rod.)

A short description of data set [3]: Half life in mouse plasma. In kind it is ADME, cell-free.
Data set [4] is described as follows: Clearance in mouse at 2 mg/kg, po. In kind it is ADME, organism-based. As to conditions: in vivo.
The nature of data set [5]: Ratio of drug level in brain to plasma in mouse measured at 1 hr post dose. In kind it is ADME, cell-free. Conditions: brain and plasma, read-out: BPR.
Data set [6] deals with Mus musculus. In words: Toxicity in mouse at 50 mg/kg, po. Conditions: in vivo. In kind it is organism-based.
The target in data set [7] is Voltage-gated inwardly rectifying potassium channel KCNH2 (Homo sapiens, UniProt Q12809). The data set can be described thus: Inhibition of human ERG up to 10 uM.
Sequence of Voltage-gated inwardly rectifying potassium channel KCNH2 (Q12809 whole entry): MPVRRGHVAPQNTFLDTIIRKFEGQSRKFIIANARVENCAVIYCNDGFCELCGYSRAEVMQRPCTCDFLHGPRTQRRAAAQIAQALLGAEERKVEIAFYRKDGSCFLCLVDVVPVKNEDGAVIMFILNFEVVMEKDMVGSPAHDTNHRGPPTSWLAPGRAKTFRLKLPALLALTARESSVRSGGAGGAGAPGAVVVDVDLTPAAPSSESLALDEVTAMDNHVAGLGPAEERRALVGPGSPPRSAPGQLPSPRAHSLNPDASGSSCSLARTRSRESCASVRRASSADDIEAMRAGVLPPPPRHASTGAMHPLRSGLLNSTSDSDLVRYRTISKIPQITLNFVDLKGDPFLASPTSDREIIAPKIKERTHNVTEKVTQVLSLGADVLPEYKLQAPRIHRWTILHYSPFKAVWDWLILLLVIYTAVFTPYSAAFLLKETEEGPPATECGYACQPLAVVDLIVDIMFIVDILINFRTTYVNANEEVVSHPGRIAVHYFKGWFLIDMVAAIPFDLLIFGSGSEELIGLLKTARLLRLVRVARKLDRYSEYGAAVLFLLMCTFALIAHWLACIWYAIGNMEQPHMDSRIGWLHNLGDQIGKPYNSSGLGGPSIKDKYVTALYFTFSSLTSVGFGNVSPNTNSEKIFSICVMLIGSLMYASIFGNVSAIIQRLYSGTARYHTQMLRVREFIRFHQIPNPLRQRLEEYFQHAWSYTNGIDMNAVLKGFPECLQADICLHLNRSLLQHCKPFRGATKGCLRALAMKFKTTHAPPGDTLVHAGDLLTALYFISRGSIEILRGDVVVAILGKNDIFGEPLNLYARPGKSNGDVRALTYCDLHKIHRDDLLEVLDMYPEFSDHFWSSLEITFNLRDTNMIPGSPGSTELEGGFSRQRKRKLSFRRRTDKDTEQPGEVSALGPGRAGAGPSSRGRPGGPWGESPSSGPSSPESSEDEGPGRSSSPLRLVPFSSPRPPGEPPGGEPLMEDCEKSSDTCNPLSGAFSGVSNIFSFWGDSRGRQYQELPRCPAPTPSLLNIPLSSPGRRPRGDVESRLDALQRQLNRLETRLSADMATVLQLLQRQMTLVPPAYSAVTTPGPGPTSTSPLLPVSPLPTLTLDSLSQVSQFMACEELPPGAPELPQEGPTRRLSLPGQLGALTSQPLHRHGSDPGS
The nature of data set [8]: Half life in mouse hepatocytes. In kind it is ADME, cell-based, Hepatocyte.
The test system of data set [9] is Mus musculus. The data set can be described thus: Antidepressant activity in APPSWE/PSEN1dE9 double-transgenic mouse model of Alzheimer's disease assessed as reduction in immobility time at 10 mg/kg, ip administered daily for 5 days per week for 4 weeks by tail suspension test. In kind it is functional, organism-based.
The nature of data set [10]: Cytotoxicity against rat CSM14.1 cells assessed as cell viability after 20 hrs by ATPlite assay relative to control. In kind it is cell-based. As to conditions: read-out: Activity. Background: ATP-based viability assays read luminescence as a measure of living cells.
For data set [11], the system named is Mus musculus. In words: Cognition enhancement activity in APPSWE/PSEN1dE9 double-transgenic mouse model of Alzheimer's disease assessed as decrease in total swim distance for hidden platform at 10 mg/kg, ip administered daily for 5 days per week for 4 weeks by Morris water maze test. In kind it is functional, organism-based.
Data set [12] can be described thus: Oral bioavailability in mouse at 50 mg/kg. In kind it is ADME, organism-based. As to conditions: in vivo.
In another data set the test system is HeLa. In words: Activation of SERCA in human HeLa cells assessed as protection against thapsigargin induced depletion of ER calcium stores at 10 uM up to 150 secs by cameleon plasmid-based fluorescence assay. In kind it is cell-based.
Data set [13] in a line: Half life in mouse microsomes. In kind it is ADME, Microsome.
Data set [14] is described as follows: Inhibition of CYP450 (unknown origin) up to 5 uM. In kind it is ADME. Conditions: human.
Data set [15] can be described thus: Half life in human hepatocytes. In kind it is ADME, cell-based, Hepatocyte.
The species entered for the next data set is Rattus norvegicus. In words: Cytoprotection against thapsigargin induced cell death in rat CSM14.1 cells assessed as increase in cell viability preincubated for 2 hrs followed by thapsigargin induction measured after 20 hrs by ATPlite assay. In kind it is functional, cell-based.
Data set [16] can be described thus: Half life in human microsomes. In kind it is ADME, Microsome.

The source made the active and inactive calls. No cut-off for these calls is given here.

As for `Cc1ccc2cccc(NC(=O)c3ccc(OC(C)C)cc3)c2n1`, the half-life in data set [1] is more than 300 min; in data set [3], 140 min; in data set [8] it was 2 min; in data set [13] it was 2 min; in data set [15], 45 min; in [16] it was 15 min. Besides, the outcome in the data set with Mus musculus [2], in the data set with Mus musculus [9], in the data set with Mus musculus [11] and in the data set on HeLa was Active. In addition, the CL/F in data set [4] was 251 mL/min/kg. Also, the Kp at 1 h in data set [5] was determined as 3. For the same compound, the figures for the Activity entry in the data set on Mus musculus [6] and in the data set listed under Rattus norvegicus were “Non-Toxic” and “Dose-dependent effect”, respectively. Also, the “inhibition (INH)” value is reported as “Active” in data set [7] and “Not Active” in data set [14]. In data set [10], the viability at 20 h came out at 100%. Further, in data set [12], the bioavailability was 37%.

As usually defined, the half-life is the time in which the quantity being followed falls by half. The term CL/F denotes clearance divided by bioavailability, as obtained after extravascular dosing. A word on the bioavailability: it is dose-corrected exposure relative to a reference, in per cent. Read a high bioavailability as much systemic uptake.
